Assay [1] in a line: Inhibition of rice alpha-glucosidase by glucose B-test. More on the design: species or system Oryza sativa.
The species entered for assay [2] is Rattus norvegicus. Description: Inhibition of Wistar rat intestinal cellobiase at 1000 uM by glucose B-test.
Assay [3] deals with Sucrase-isomaltase, intestinal (Rattus norvegicus, UniProt P23739). The assay is described as follows: Inhibition of Wistar rat intestinal isomaltase by glucose B-test.
A short description of assay [4]: Inhibition of rat liver beta-galactosidase by spectrophotometry.
The species named for assay [5] is Rattus norvegicus. The assay is described as follows: Inhibition of rat liver lysosomal beta-glucosidase at 1000 uM by spectrophotometry.
Assay [6] can be described thus: Inhibition of green coffee bean alpha-galactosidase by spectrophotometry. More on the design: species or system Coffea arabica.
The subject of assay [7] is Prunus dulcis. Description: Inhibition of almond beta-glucosidase at 1000 uM by spectrophotometry.
Assay [8] is filed under the species Rattus norvegicus. The assay is described as follows: Inhibition of rat liver lysosomal alpha-galactosidase at 1000 uM by spectrophotometry.
A short description of assay [9]: Inhibition of bovine liver beta-galactosidase by spectrophotometry. More on the design: species or system Bos taurus.
For assay [10], the system named is Coffea arabica. The assay is described as follows: Inhibition of green coffee bean alpha-galactosidase at 1000 uM by spectrophotometry.
Assay [11] can be described thus: Inhibition of almond beta-glucosidase by spectrophotometry. Set-up: species or system Prunus dulcis.
A short description of assay [12]: Inhibition of Wistar rat intestinal cellobiase by glucose B-test.
The nature of assay [13]: Inhibition of rat liver lysosomal beta-glucosidase by spectrophotometry.
The test system of assay [14] is Oryza sativa. The assay is described as follows: Inhibition of rice alpha-glucosidase at 1000 uM by glucose B-test.
The species named for assay [15] is Rattus norvegicus. The assay is described as follows: Inhibition of rat liver beta-galactosidase at 1000 uM by spectrophotometry.
The target in assay [16] is Sucrase-isomaltase, intestinal (Rattus norvegicus) (UniProt P23739). The assay is described as follows: Inhibition of Wistar rat intestinal isomaltase at 1000 uM by glucose B-test.
Chain of Sucrase-isomaltase, intestinal (Rattus norvegicus) (P23739 1-1013 limits assumed): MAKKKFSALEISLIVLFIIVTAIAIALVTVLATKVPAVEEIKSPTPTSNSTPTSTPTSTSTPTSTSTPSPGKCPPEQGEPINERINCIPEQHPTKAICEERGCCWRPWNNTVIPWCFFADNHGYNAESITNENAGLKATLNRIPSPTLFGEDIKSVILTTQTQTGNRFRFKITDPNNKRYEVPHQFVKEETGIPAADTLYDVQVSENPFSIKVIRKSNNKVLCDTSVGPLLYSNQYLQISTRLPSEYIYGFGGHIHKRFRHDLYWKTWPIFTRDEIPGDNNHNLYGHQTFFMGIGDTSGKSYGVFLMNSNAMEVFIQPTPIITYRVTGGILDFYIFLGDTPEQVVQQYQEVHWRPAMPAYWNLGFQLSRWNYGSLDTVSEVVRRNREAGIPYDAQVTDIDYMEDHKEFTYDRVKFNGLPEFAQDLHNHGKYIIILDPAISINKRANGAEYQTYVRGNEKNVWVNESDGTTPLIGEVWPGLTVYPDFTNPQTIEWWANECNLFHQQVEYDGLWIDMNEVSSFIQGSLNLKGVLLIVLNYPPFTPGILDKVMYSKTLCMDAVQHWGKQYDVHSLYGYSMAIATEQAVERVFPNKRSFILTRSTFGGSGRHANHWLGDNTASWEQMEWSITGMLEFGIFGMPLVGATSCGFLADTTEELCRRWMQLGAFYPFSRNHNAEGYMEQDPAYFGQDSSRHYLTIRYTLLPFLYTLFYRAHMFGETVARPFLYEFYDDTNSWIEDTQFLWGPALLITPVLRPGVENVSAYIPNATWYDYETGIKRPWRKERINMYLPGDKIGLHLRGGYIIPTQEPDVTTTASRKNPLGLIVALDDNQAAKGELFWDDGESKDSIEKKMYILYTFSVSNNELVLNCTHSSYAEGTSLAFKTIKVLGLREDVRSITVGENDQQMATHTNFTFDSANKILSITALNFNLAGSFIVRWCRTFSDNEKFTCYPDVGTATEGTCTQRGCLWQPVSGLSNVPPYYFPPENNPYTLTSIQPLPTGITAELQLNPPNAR
Chain of Sucrase-isomaltase, intestinal (Rattus norvegicus) (P23739 1014-1841 limits assumed): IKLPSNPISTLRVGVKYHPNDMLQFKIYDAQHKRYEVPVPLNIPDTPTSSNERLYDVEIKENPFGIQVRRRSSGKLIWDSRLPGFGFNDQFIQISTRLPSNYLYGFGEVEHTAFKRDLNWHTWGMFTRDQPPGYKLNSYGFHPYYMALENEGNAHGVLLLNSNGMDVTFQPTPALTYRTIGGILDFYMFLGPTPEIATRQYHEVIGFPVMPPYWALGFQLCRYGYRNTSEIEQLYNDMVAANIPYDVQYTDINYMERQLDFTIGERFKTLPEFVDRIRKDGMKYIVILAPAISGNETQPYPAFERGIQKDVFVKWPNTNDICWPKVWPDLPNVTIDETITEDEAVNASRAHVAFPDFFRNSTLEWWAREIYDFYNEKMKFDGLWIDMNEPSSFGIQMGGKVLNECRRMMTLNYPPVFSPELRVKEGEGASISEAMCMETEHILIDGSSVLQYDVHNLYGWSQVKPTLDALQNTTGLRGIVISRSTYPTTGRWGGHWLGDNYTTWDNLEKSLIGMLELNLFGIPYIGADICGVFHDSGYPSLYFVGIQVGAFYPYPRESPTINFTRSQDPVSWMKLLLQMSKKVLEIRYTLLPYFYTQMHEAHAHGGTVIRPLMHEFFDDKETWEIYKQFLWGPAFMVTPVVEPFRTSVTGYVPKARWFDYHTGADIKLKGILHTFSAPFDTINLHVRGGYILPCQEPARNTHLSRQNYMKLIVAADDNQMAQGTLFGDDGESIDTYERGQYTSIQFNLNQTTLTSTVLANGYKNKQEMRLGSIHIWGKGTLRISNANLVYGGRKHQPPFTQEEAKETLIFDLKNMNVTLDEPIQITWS
For assay [17], the species on record is Bos taurus. Description: Inhibition of bovine liver beta-galactosidase at 1000 uM by spectrophotometry.

Chain of Sucrase-isomaltase, intestinal (P23739 1-1013 limits assumed): as the sequence (P23739 1-1013 limits assumed) above
Chain of Sucrase-isomaltase, intestinal (P23739 1014-1841 limits assumed): as the sequence (P23739 1014-1841 limits assumed) above

For `OC[C@H]1NCC[C@@H](O)[C@@H]1O` [FAGOMINE], the IC50 turned out to be 320 µM in [1], 46 µM in [3], 15 µM in assay [4] and 56 µM in [6]. In addition, the inhibition in assay [2], in assay [5], in assay [7] and in [8] was less than 50% each time.
In the case of `OC[C@H]1NCC[C@H](O)[C@@H]1O`, the half-maximal inhibitory concentration (IC50) in [1] stood at 120 µM; in assay [9] it was 3 µM; in [11], 120 µM; in assay [3] it was 6 µM; in assay [4], 4 µM; in [12], 100 µM. The IC50 in assay [13] amounted to 740 µM. Moreover, the inhibition in [10] and in assay [8] was less than 50% throughout.
In the case of `OC[C@H]1NCC[C@@H](O[C@@H]2O[C@H](CO)[C@@H](O)[C@H](O)[C@H]2O)[C@@H]1O`, the inhibition in assay [10], in assay [2], in assay [5], in assay [7], in [14] and in [15] was less than 50% each time. In addition, the inhibition in assay [16], in [17] and in [8] was less than 50% in each case.
Turning to `OC[C@H]1NCC[C@@H](O)[C@@H]1O[C@@H]1O[C@H](CO)[C@@H](O)[C@H](O)[C@H]1O`, the inhibition in [10], in assay [2], in [5], in assay [7], in [14] and in assay [15] was less than 50% each time. The inhibition in assay [16], in assay [17] and in assay [8] was less than 50% each time.
Regarding `OC[C@H]1NCC[C@H](O)[C@H]1O`, the inhibition in assay [10], in assay [2], in [5], in [7], in [14] and in assay [15] was less than 50% each time. The inhibition in assay [16], in [17] and in assay [8] was less than 50% throughout.

The IC50 is the midpoint of a concentration-inhibition curve. As usually defined, the inhibition is the percentage by which the read-out fell short of the control. Read a high inhibition as a strong effect.
